Data on twelve molecules can be found in patent US7880007B2, “Bicyclic substituted phenyl piperidine modulators of muscarinic receptors” (Vertex Pharmaceuticals Incorporated, priority 2004, dated 2011).

Holding throughout (assay type): cell-based
The target of one test is T1, M3 muscarinic receptor (Homo sapiens, UniProt P20309).
T1 construct: expressed in transfected cells; host or cells: CHO (M3-CHO)
The test can be described thus: Functional mobilization of intracellular calcium (FLIPR), M3-CHO cells. The note with it: for Emax: 100% efficacy = maximum response obtained with the Carbachol control; for M3 Activity: M3-CHO cells, calcium mobilization (FLIPR). The essentials:
(§1)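 CHO cells expressing human M1–M4 receptors loaded with Fluo-3 AM or Calcium 3 dye (1 mM probenecid, pH 7.4); 0.5% DMSO final. Agonist mode: compound added directly; antagonist mode: 15 min pre-incubation or co-application, then carbachol at EC80. Fluorescence read 60 s on FLIPR; efficacy relative to carbachol maximum.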
A general note: Calcium assays in cells follow changes in intracellular calcium, usually with a dye or a luminescent sensor.

The target in the next test is T2, M1 muscarinic receptor (Homo sapiens, UniProt P11229).
T2 construct: expressed in transfected cells; host or cells: CHO (M1-CHO)
T2 sequence (P11229 1-460): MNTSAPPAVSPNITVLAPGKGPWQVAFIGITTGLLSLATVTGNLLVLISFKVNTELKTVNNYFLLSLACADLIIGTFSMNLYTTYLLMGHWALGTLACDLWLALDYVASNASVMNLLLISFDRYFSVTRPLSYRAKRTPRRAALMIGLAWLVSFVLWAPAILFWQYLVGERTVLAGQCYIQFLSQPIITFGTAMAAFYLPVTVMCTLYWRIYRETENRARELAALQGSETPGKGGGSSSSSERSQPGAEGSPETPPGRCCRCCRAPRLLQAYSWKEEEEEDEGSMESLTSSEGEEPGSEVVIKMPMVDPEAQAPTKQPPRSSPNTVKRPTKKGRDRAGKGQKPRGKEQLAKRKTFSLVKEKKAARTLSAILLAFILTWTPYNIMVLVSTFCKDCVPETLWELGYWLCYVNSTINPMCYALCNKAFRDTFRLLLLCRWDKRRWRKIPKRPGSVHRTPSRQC
The experiment in a line: Functional mobilization of intracellular calcium (FLIPR), M1-CHO cells. The note with it: for Emax: 100% efficacy = maximum response obtained with the Carbachol control; for M1 Activity: M1-CHO cells, calcium mobilization (FLIPR). In short, it runs like this: as §1

A further test deals with T3, M4 muscarinic receptor (Homo sapiens, UniProt P08173).
T3 construct: expressed in transfected cells; host or cells: CHO (M4-CHO)
T3 sequence (P08173 1-479): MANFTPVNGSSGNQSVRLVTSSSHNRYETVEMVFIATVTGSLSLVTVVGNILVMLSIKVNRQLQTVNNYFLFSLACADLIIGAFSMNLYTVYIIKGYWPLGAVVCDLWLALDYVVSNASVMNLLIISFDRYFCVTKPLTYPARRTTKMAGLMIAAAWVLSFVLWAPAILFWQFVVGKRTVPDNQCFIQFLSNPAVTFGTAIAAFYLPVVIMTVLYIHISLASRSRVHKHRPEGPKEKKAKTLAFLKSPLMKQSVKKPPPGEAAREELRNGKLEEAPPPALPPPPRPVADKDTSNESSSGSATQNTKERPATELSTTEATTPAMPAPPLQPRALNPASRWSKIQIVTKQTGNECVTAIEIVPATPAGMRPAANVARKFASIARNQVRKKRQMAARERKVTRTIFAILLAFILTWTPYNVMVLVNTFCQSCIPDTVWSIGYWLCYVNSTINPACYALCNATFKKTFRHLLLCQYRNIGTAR
The experiment in a line: Functional mobilization of intracellular calcium (FLIPR), M4-CHO cells. The conditions noted are these: for Emax: 100% efficacy = maximum response obtained with the Carbachol control; for M4 Activity: M4-CHO cells, calcium mobilization (FLIPR). The essentials:
as §1

The next test has as its target T4, M2 muscarinic receptor (Homo sapiens, UniProt P08172).
T4 construct: expressed in transfected cells; host or cells: CHO (M2-CHO)
T4 sequence (P08172 1-466): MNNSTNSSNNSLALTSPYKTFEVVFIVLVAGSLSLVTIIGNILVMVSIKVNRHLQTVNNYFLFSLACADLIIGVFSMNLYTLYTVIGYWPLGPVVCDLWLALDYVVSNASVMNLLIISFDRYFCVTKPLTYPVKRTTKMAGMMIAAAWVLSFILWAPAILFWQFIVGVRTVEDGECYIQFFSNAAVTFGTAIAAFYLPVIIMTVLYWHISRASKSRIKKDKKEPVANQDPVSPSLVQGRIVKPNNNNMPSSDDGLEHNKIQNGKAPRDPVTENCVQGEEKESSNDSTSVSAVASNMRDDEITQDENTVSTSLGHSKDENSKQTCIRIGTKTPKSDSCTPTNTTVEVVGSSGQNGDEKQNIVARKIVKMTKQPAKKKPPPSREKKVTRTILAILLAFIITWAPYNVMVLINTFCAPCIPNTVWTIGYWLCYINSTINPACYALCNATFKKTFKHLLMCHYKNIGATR
The experiment in a line: Functional mobilization of intracellular calcium (FLIPR), M2-CHO cells. The conditions noted are these: for Emax: 100% efficacy = maximum response obtained with the Carbachol control; for M2 Activity: M2-CHO cells, calcium mobilization (FLIPR). In short, it runs like this: as §1

Molecules are shown by their SMILES.

T1 sequence (P20309 whole entry): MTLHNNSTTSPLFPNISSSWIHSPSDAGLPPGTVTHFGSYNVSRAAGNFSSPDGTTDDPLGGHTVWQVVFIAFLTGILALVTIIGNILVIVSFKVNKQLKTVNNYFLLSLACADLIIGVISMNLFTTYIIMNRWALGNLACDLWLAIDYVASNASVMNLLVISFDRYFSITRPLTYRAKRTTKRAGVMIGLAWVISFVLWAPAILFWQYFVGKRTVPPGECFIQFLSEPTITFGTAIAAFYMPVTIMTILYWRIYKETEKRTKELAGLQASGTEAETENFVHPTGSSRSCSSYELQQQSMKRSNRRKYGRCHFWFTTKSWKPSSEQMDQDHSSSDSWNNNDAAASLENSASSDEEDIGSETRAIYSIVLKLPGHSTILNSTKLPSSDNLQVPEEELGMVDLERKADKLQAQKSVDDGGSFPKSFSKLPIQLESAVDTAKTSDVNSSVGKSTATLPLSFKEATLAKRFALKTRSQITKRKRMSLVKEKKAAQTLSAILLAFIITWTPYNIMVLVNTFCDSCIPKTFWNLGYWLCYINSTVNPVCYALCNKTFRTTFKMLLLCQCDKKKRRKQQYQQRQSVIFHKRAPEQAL

In the case of `COc1ccccc1C1CCN(C2CCCCCC2)CC1` [Compound 224], on M3 muscarinic receptor, the Emax (in general, the maximal effect, on the per cent scale that the assay sets) was below 25% and the “M3 Activity” value is recorded as “+ (activity was measured to be greater than 5.0 μM)”. Further, at M1 muscarinic receptor, the maximum response (Emax) is 25 to 100% and the “M1 Activity” value was “+ (activity was measured to be greater than 5.0 μM)”. Also, at M4 muscarinic receptor, the Emax is 25 to 100% and the “M4 Activity” value is recorded as “+++ (activity was measured to be less than 1.0 μM)”. At M2 muscarinic receptor, the Emax was below 25% and the “M2 Activity” value is on record as “+ (activity was measured to be greater than 5.0 μM)”.

As to `Cc1cccc(C2CCN(C3C[C@H]4CC[C@H]3C4)CC2)c1C` (stereo partly drawn) [Compound 225], at M3 muscarinic receptor, the Emax is below 25% and the “M3 Activity” value is on record as “+ (activity was measured to be greater than 5.0 μM)”. In addition, at M1 muscarinic receptor, the Emax was 25 to 100% and the “M1 Activity” value was “+ (activity was measured to be greater than 5.0 μM)”. Moreover, at M4 muscarinic receptor, the maximum response (Emax) lay in the range of 25 to 100% and the “M4 Activity” value is on record as “++ (activity was measured to be from 1.0 μM to 5.0 μM)”. Besides, on M2 muscarinic receptor, the Emax was below 25% and the “M2 Activity” value is “+ (activity was measured to be greater than 5.0 μM)”.

As to `CCOC(=O)N1C2CCC1CC(N1CCC(c3cc(-c4ccc(C(=O)NC)c(Cl)c4)ccc3OC)CC1)C2` (stereo not drawn) [Compound 226], at M3 muscarinic receptor, the Emax is below 25% and the “M3 Activity” value is listed as “+ (activity was measured to be greater than 5.0 μM)”. Moreover, at M1 muscarinic receptor, the Emax is below 25% and the “M1 Activity” value was “+ (activity was measured to be greater than 5.0 μM)”. For the same molecule, at M4 muscarinic receptor, the Emax lay in the range of 25 to 100% and the “M4 Activity” value is reported as “++ (activity was measured to be from 1.0 μM to 5.0 μM)”. For the same molecule, at M2 muscarinic receptor, the Emax is below 25% and the “M2 Activity” value is given as “+ (activity was measured to be greater than 5.0 μM)”.

On to `COc1cc(F)c(F)cc1C1CCN([C@H]2C[C@H]3CC[C@H]2C3)CC1` [Compound 227], for which, on M3 muscarinic receptor, the maximum response (Emax) is below 25% and the “M3 Activity” value is reported as “+ (activity was measured to be greater than 5.0 μM)”. In addition, on M1 muscarinic receptor, the Emax is 25 to 100% and the “M1 Activity” value was “+ (activity was measured to be greater than 5.0 μM)”. Besides, at M4 muscarinic receptor, the maximal effect (Emax) lay in the range of 25 to 100% and the “M4 Activity” value is recorded as “++ (activity was measured to be from 1.0 μM to 5.0 μM)”. Further, on M2 muscarinic receptor, the Emax was below 25% and the “M2 Activity” value was “+ (activity was measured to be greater than 5.0 μM)”.

For the molecule `COc1ccc(C(=O)c2ccsc2)cc1C1CCN([C@H]2C[C@H]3CC[C@H]2C3)CC1` [Compound 230], on M3 muscarinic receptor, the maximum response (Emax) was below 25% and the “M3 Activity” value is “+ (activity was measured to be greater than 5.0 μM)”. At M1 muscarinic receptor, the Emax is below 25% and the “M1 Activity” value is listed as “+ (activity was measured to be greater than 5.0 μM)”. In addition, at M4 muscarinic receptor, the Emax is 25 to 100% and the “M4 Activity” value is “+++ (activity was measured to be less than 1.0 μM)”. Moreover, at M2 muscarinic receptor, the Emax is below 25% and the “M2 Activity” value is “+ (activity was measured to be greater than 5.0 μM)”.

On to `COc1ccc(F)cc1C1(O)CCN(CC2CCOCC2)CC1` [Compound 231], for which, at M3 muscarinic receptor, the Emax was below 25% and the “M3 Activity” value is on record as “+ (activity was measured to be greater than 5.0 μM)”. At M1 muscarinic receptor, the Emax is below 25% and the “M1 Activity” value is “+ (activity was measured to be greater than 5.0 μM)”. For the same molecule, on M4 muscarinic receptor, the Emax is below 25% and the “M4 Activity” value is “+ (activity was measured to be greater than 5.0 μM)”. Further, at M2 muscarinic receptor, the Emax is below 25% and the “M2 Activity” value is “+ (activity was measured to be greater than 5.0 μM)”.

For the molecule `COc1ccccc1C1CCN(CC2CCCC2)CC1` [Compound 232], on M3 muscarinic receptor, the Emax was below 25% and the “M3 Activity” value is “+ (activity was measured to be greater than 5.0 μM)”. In addition, on M1 muscarinic receptor, the Emax was in the range of 25 to 100% and the “M1 Activity” value is given as “+ (activity was measured to be greater than 5.0 μM)”. On M4 muscarinic receptor, the Emax is 25 to 100% and the “M4 Activity” value was “++ (activity was measured to be from 1.0 μM to 5.0 μM)”. Besides, on M2 muscarinic receptor, the Emax was below 25% and the “M2 Activity” value is recorded as “+ (activity was measured to be greater than 5.0 μM)”.

Turning to `COc1ccccc1C1CCN(CC2CCOCC2)CC1` [Compound 233], on M3 muscarinic receptor, the Emax was below 25% and the “M3 Activity” value is “+ (activity was measured to be greater than 5.0 μM)”. On M1 muscarinic receptor, the Emax is 25 to 100% and the “M1 Activity” value is listed as “+ (activity was measured to be greater than 5.0 μM)”. Moreover, at M4 muscarinic receptor, the Emax fell in the range of 25 to 100% and the “M4 Activity” value is listed as “++ (activity was measured to be from 1.0 μM to 5.0 μM)”. In addition, on M2 muscarinic receptor, the Emax is below 25% and the “M2 Activity” value is “+ (activity was measured to be greater than 5.0 μM)”.

Take `COc1ccccc1C1CCN(C2CCC(c3ccccc3)CC2)CC1` (stereo not drawn) [Compound 234]: on M3 muscarinic receptor, the Emax is below 25% and the “M3 Activity” value is recorded as “+ (activity was measured to be greater than 5.0 μM)”. On M1 muscarinic receptor, the Emax is below 25% and the “M1 Activity” value was “+ (activity was measured to be greater than 5.0 μM)”. At M4 muscarinic receptor, the Emax is below 25% and the “M4 Activity” value was “+ (activity was measured to be greater than 5.0 μM)”. Also, on M2 muscarinic receptor, the Emax is below 25% and the “M2 Activity” value is “+ (activity was measured to be greater than 5.0 μM)”.

On to `COc1ccccc1C1CCN(C2CCOCC2)CC1O` (stereo not drawn) [Compound 235], for which, at M3 muscarinic receptor, the Emax is below 25% and the “M3 Activity” value is “+ (activity was measured to be greater than 5.0 μM)”. At M1 muscarinic receptor, the Emax lay within 25 to 100% and the “M1 Activity” value is recorded as “+ (activity was measured to be greater than 5.0 μM)”. Also, on M4 muscarinic receptor, the Emax fell in the range of 25 to 100% and the “M4 Activity” value was “+ (activity was measured to be greater than 5.0 μM)”. Besides, at M2 muscarinic receptor, the Emax is below 25% and the “M2 Activity” value is given as “+ (activity was measured to be greater than 5.0 μM)”.

Regarding `c1cc2c(c(C3CCN(C4C[C@@H]5CC[C@@H]4C5)CC3)c1)OCO2` (stereo partly drawn) [Compound 236], on M3 muscarinic receptor, the Emax is below 25% and the “M3 Activity” value is given as “+ (activity was measured to be greater than 5.0 μM)”. Also, on M1 muscarinic receptor, the Emax fell in the range of 25 to 100% and the “M1 Activity” value is reported as “++ (activity was measured to be from 1.0 μM to 5.0 μM)”. Moreover, on M4 muscarinic receptor, the Emax lay in the range of 25 to 100% and the “M4 Activity” value was “+++ (activity was measured to be less than 1.0 μM)”. Also, at M2 muscarinic receptor, the Emax was below 25% and the “M2 Activity” value is recorded as “+ (activity was measured to be greater than 5.0 μM)”.

As to `COc1ccc(-c2ccoc2)cc1C1CCN([C@@H]2C[C@H]3CC[C@H]2C3)CC1` [Compound 237], on M3 muscarinic receptor, the Emax is below 25% and the “M3 Activity” value is listed as “+ (activity was measured to be greater than 5.0 μM)”. In addition, at M1 muscarinic receptor, the Emax was below 25% and the “M1 Activity” value was “+ (activity was measured to be greater than 5.0 μM)”. Further, on M4 muscarinic receptor, the Emax lay within 25 to 100% and the “M4 Activity” value is “++ (activity was measured to be from 1.0 μM to 5.0 μM)”. Moreover, at M2 muscarinic receptor, the Emax was below 25% and the “M2 Activity” value is reported as “+ (activity was measured to be greater than 5.0 μM)”.
